Laboratory results taken from US20150164895A1, “DETERMINING SENSITIVITY OF CELLS TO B-RAF INHIBITOR TREATMENT BY DETECTING KRAS MUTATION AND RTK EXPRESSION LEVELS” (GENENTECH, INC., priority 2009, published 2015).
Values joined by “and” are separate entries in the source; they are usually repeats but may differ in a detail not shown here. Equal entries are not always repeated.

Tests used:
[1] = system: pMEK levels in non-B-Raf^V600E lines; assay: pMEK levels / Raf/MEK/ERK pathway induction by Raf inhibitors; assay type: cell-based
[2] = system: C-RAF in A375 (B-RAFV600E) cells transfected with KRASG12D; assay: C-RAF immunoprecipitation: kinase activity and B-RAF heterodimerization; assay type: cell-based; set-up: dose or concentration left out as unconfirmed; conditions: A375 transfected with mutant KRASG12D; dosed at 0.1, 1
Procedure: FIGS. 20A, B, C and D depict the importance of the role of active Ras plays in C-RAF activation and phospho-MEK induction by RAF inhibitors. (A) A375 (B-RAFV600E) cells were treated with GDC-0879 or PLX4720 for 1 hour and lysed in hypotonic buffer for membrane fractionation. Both membrane (P100) and cytosolic (S100) fractions were immunoblotted with the indicated antibodies. (B) MeWo cells were transiently transfected with KRASWT or KRASSI7N, treated with GDC-0879 or PLX4720 (at […]) for 1 hour and fractionated into membrane (P100) and cytosolic (S100) fractions. Aliquots of the membrane and cytosolic fractions were immunoblotted with anti-phospho- and anti-total MEK antibodies. (C) RAS-GTP levels were measured from lysates of MeWo (RAS/RAFWT), A375 (B-RAFV600E) and H2122 (KRASMT) cells with a Ras-GTP ELISA protocol using immobilized C-RAF-RBD as bait for capturing RAS-GTP. Relative luminescent units represent RAS detection of an anti-RAS antibody bound to the RBD. RAS-GTP H2122>>Mewo>A375. […] C-RAF was immunoprecipitated from control and inhibitor-treated cells and assayed for protein activity and B-RAF heterodimerization. Total C-RAF levels shown by WB in the immunoprecipitate indicate loading for each lane.

[3] = system: LXFA 983/9N4 (Lung, adeno); assay: Oncotest Exp H331: growth of LXFA 983 lung tumor xenograft after dosing with B-RAF inhibitor; assay type: in vivo, mice; conditions: H331-2, 100 mg/kg/day, Days 0-21; for Absolute body weight, Median / Relative body weight, Median / Absolute tumor volume: (a*b*b)/2, Median / Relative tumor volume, Median: group median; for Absolute body weight, Median / Relative body weight, Median: n 10; for Absolute tumor volume: (a*b*b)/2, Median / Relative tumor volume, Median: n 15; for Relative tumor volume / Absolute tumor volume: (a*b*b)/2: individual tumors
Description: FIGS. 10-18 depict growth in lung tumor xenografts after dosing with GDC-0879.
The data are shown below, and in FIGS. 10-14 for Experiment H331 and FIGS. 15-18 for Experiment H327.

[4] = study day 3, individual animals, listed as G-026887
[5] = study day 3, listed as G-026887
[6] = study day 7, individual animals, listed as G-026887
[7] = study day 7, listed as G-026887

OCCn1cc(-c2ccc3c(c2)CC/C3=N\O)c(-c2ccncc2)n1 [GDC-0879, 2-{4-[(1E)-1-(hydroxyimino)-2,3-dihydro-1H-inden-5-yl]-3-(pyridine-4-yl)-1H-pyrazol-1-yl}ethan-1-ol]
effect on pMEK levels ([1]; after serum stimulation): Inhibitory effects of GDC-0879 predominate
effect on pMEK levels / c-Raf ([1]; basal conditions): bell-shaped curve
B-RAF:C-RAF heterodimers and C-RAF kinase activation [2]: induce B-RAF:C-RAF heterodimers and C-RAF kinase activation
Survival time ([3]; individual animals, listed as G-026887): >22 days (6×) and >21 days (14×)
Absolute body weight, Median ([3]; study day 0): 27.5 g
Relative body weight, Median ([3]; study day 0): 100.0%
Absolute tumor volume: (a*b*b)/2, Median ([3]; study day 0): 117.2 mm3
Relative tumor volume, Median ([3]; study day 0): 100.0%
Relative body weight ([3]; study day 0, individual animals): 100.0%
Absolute body weight ([3]; study day 0, individual animals, listed as G-026887): 27.2 g and 26.9 g and 27.3 g and 26.1 g and 29.4 g and 24.8 g and 31.2 g (2×) and 30.2 g and 27.6 g
Relative tumor volume ([3]; study day 0): 100.0%
Absolute tumor volume: (a*b*b)/2 ([3]; study day 0, listed as G-026887): 117.2 mm3 and 121.1 mm3 and 94.1 mm3 and 137.3 mm3 and 237.3 mm3 and 62.5 mm3 and 80.2 mm3 and 123.0 mm3 and 111.6 mm3 and 74.4 mm3 (2×) and 219.4 mm3 and 55.3 mm3 and 150.4 mm3 and 130.7 mm3
Absolute body weight, Median ([3]; study day 3): 27.2 g
Relative body weight, Median ([3]; study day 3): 97.9%
Absolute tumor volume: (a*b*b)/2, Median ([3]; study day 3): 236.3 mm3
Relative tumor volume, Median ([3]; study day 3): 211.7%
Absolute body weight [3, 4]: 26.8 g and 27.2 g and 26.7 g and 25.6 g and 27.9 g and 24.7 g and 29.4 g and 29.2 g and 27.1 g and 29.6 g
Relative body weight [3, 4]: 94.9% (2×) and 98.5% and 101.1% and 97.8% and 98.1% and 99.6% and 94.2% and 96.7% and 98.2%
Absolute tumor volume: (a*b*b)/2 [3, 5]: 265.6 mm3 and 166.6 mm3 and 188.5 mm3 and 239.1 mm3 and 546.2 mm3 and 176.4 mm3 and 210.9 mm3 and 268.8 mm3 and 236.3 mm3 and 156.8 mm3 and 392.9 mm3 and 119.1 mm3 and 310.7 mm3 and 295.9 mm3 and 83.2 mm3
Relative tumor volume [3, 5]: 111.8% and 226.6% and 137.6% and 200.4% and 174.1% and 230.2% and 282.2% and 263.0% and 218.5% and 211.7% and 210.9% and 179.1% and 215.3% and 206.6% and 226.4%
Absolute body weight, Median ([3]; study day 7): 27.3 g
Relative body weight, Median ([3]; study day 7): 96.5%
Absolute tumor volume: (a*b*b)/2, Median ([3]; study day 7): 348.2 mm3
Relative tumor volume, Median ([3]; study day 7): 293.3%
Absolute body weight [3, 6]: 26.3 g (2×) and 27.4 g and 25.7 g and 27.1 g and 24.2 g and 28.9 g and 28.1 g and 27.6 g and 29.3 g
Relative body weight [3, 6]: 93.9% and 96.7% and 101.9% and 96.3% and 98.5% and 92.2% and 97.6% and 92.6% and 93.0% and 100.0%
Absolute tumor volume: (a*b*b)/2 [3, 7]: 392.9 mm3 and 325.1 mm3 and 261.6 mm3 and 445.5 mm3 and 689.1 mm3 and 289.1 mm3 and 348.2 mm3 and 344.4 mm3 and 455.1 mm3 and 253.1 mm3 and 560.0 mm3 and 216.6 mm3 and 352.5 mm3 and 383.3 mm3
Relative tumor volume [3, 7]: 152.3% and 335.2% and 268.5% and 278.0% and 324.4% and 290.4% and 462.6% and 434.2% and 280.0% and 407.8% and 340.4% and 255.3% and 391.6% and 234.4%
Absolute body weight, Median ([3]; study day 10): 27.3 g
Relative body weight, Median ([3]; study day 10): 97.9%
Absolute tumor volume: (a*b*b)/2, Median ([3]; study day 10): 406.6 mm3
Relative tumor volume, Median ([3]; study day 10): 392.5%
